This note sets out measurements from the Deep4Chem optical property database.

The nature of the first data set: solvent given as SMILES. The following applies: in C1CCCCC1.
In the case of `CC1(C)Cc2c(c3ccccc3c3nc4ccccc4nc23)O1`, the emission maximum is 475.96 nm.

As for `CCCCCCCCCCCCCCCCOC(=O)c1ccc(N(c2ccccc2)c2ccccc2)cc1`, the emission maximum is listed as 380 nm.

Consider `CCOC(=O)CCOc1ccc(C(c2c(C)[nH]c3ccccc23)c2c(C)[nH]c3ccccc23)cc1OC`, for which the emission maximum was determined as 330 nm.

As for `CCCCN1c2ccccc2Sc2cc(/C=C/c3nc4nc5ccccc5nc4s3)ccc21`, the emission maximum is 558 nm.

In turn, `N#C/C(=C\c1ccccc1)c1nc2ccccc2s1` had an emission maximum of 430 nm.

For the compound `CN(C)CCNc1ccc([N+](=O)[O-])cc1[N+](=O)[O-]`, the emission maximum was determined as 368 nm.

`CCCCc1cc2cccc3cc(CCCC)c4cc(-c5cc6[b-]7c(c5)c(CCCC)cc5cccc(cc6CCCC)[n+]75)cc1[b-]4[n+]23`: the emission maximum is reported as 550 nm.

Regarding `C[Si](C)(C)C#Cc1ccc(C#Cc2cnc(C#Cc3ccccc3)nc2)cc1`, the emission maximum was 390 nm.

Take `COc1ccc2c(c1)c1c(OC)c3ccccc3c(OC)c1n2C`: the emission maximum stood at 431 nm.

Still in this data set, the particulars now being: in C1CCOC1.
`CC1(C)Cc2c(c3ccccc3c3nc4ccccc4nc23)O1` returned an emission maximum of 505.05 nm.

The compound `OC1(c2ccc(-c3cccs3)s2)CCC(c2ccccc2)CC1` (stereo not drawn) gave an emission maximum of 471 nm.

Compound `CCCCCCCCCCCCCCCCOC(=O)c1ccc(N(c2ccccc2)c2ccccc2)cc1` displayed an emission maximum of 428 nm.

Regarding `COc1ccc(/C=C/c2nc(/C=C/c3ccc(N(c4ccccc4)c4ccccc4)cc3)cc(/C=C/c3ccc(N(c4ccccc4)c4ccccc4)cc3)n2)cc1`, the emission maximum came out at 515 nm.

With `CCCCN1c2ccccc2Sc2cc(/C=C/c3nc4nc5ccccc5nc4s3)ccc21`, the emission maximum was determined as 670 nm.

As to `CCCCCCc1ccc2c(/C=N/c3ccc(/N=C/c4c(O)ccc5cc(CCCCCC)ccc45)cc3)c(O)ccc2c1`, the emission maximum came to 542 nm.

Regarding `CN(C)CCNc1ccc([N+](=O)[O-])cc1[N+](=O)[O-]`, the emission maximum was 389 nm.

Regarding `CCN(CC)c1ccc(-c2nc3c(c4c2-c2ccc(C#N)cc2CC4)-c2ccc(C#N)cc2CC3)cc1`, the emission maximum is recorded as 499 nm.

The data set is the same for the next values; noted with them: in C1COCCO1.
The compound `COc1cc(N(c2ccccc2)c2ccccc2)ccc1C=C(C#N)C#N` yielded an emission maximum of 548 nm.

`CCCCN1c2ccccc2Sc2cc(/C=C/c3nc4nc5ccccc5nc4s3)ccc21` yielded an emission maximum of 640 nm.

`CN(C)CCNc1ccc([N+](=O)[O-])cc1[N+](=O)[O-]` came in with an emission maximum of 385 nm.

The data set is the same for the next values; noted with them: in CC#N.
For `COc1cc(N(c2ccccc2)c2ccccc2)ccc1C=C(C#N)C#N`, the emission maximum is on record as 581 nm.

In turn, `CCNc1cc2oc(=O)cc(C(F)(F)F)c2cc1C` had an emission maximum of 481 nm.

Consider `O=C1c2ccccc2-c2c(-c3ccccc3)c(-c3ccccc3)c(-c3ccccc3)c3cccc1c23`, for which the emission maximum is on record as 498 nm.

Consider `C[C@@]12SC(Cl)=CC1=c1nc(-c3ccccc3)[nH]c1=C1C=C(Cl)S[C@]12C`, for which the emission maximum is given as 452 nm.

Compound `OC1(c2ccc(-c3cccs3)s2)CCC(c2ccccc2)CC1` (stereo not drawn) yielded an emission maximum of 468 nm.

The compound `CC(=O)c1nc(-c2ccc(N(C)C)cc2)oc1C` had an emission maximum of 376 nm.

In turn, `CCCCCCCCCCCCCCCCOC(=O)c1ccc(N(c2ccccc2)c2ccccc2)cc1` displayed an emission maximum of 480 nm.

In turn, `CCOC(=O)CCOc1ccc(C(c2c(C)[nH]c3ccccc23)c2c(C)[nH]c3ccccc23)cc1OC` showed an emission maximum of 344 nm.

On to `COc1ccc(/C=C/c2nc(/C=C/c3ccc(N(c4ccccc4)c4ccccc4)cc3)cc(/C=C/c3ccc(N(c4ccccc4)c4ccccc4)cc3)n2)cc1`, for which the emission maximum is listed as 583 nm.

On to `CCCCCCc1ccc2c(/C=N/c3ccc(/N=C/c4c(O)ccc5cc(CCCCCC)ccc45)cc3)c(O)ccc2c1`, for which the emission maximum is recorded as 539 nm.

On to `CN(C)CCNc1ccc([N+](=O)[O-])cc1[N+](=O)[O-]`, for which the emission maximum is recorded as 399 nm.

Consider `CCN(CC)c1ccc(-c2nc3c(c4c2-c2ccc(C#N)cc2CC4)-c2ccc(C#N)cc2CC3)cc1`, for which the emission maximum came to 525 nm.

On to `COc1ccc2c(c1)c1c(OC)c3ccccc3c(OC)c1n2C`, for which the emission maximum is on record as 445 nm.

`Cc1ccc(-c2cc(C)[o+]c(C)c2)cc1` came in with an emission maximum of 435 nm.

Still in this data set, the particulars now being: in CC(C)=O.
As for `COc1cc(N(c2ccccc2)c2ccccc2)ccc1C=C(C#N)C#N`, the emission maximum was determined as 587 nm.

Consider `COc1ccc(/C=C/c2nc(/C=C/c3ccc(N(c4ccccc4)c4ccccc4)cc3)cc(/C=C/c3ccc(N(c4ccccc4)c4ccccc4)cc3)n2)cc1`, for which the emission maximum came to 555 nm.

On to `CCCCN1c2ccccc2Sc2cc(/C=C/c3nc4nc5ccccc5nc4s3)ccc21`, for which the emission maximum was 739 nm.

`CN(C)CCNc1ccc([N+](=O)[O-])cc1[N+](=O)[O-]` registered an emission maximum of 401 nm.

Staying with this data set, now noted: in CC(C)O.
`O=C([O-])c1ccccc1-c1c2cc(I)c(=O)c(I)c-2oc2c(I)c([O-])c(I)cc12` had an emission maximum of 557 nm.

Still in this data set, the particulars now being: in CCCCCC.
As for `OC1(c2ccc(-c3cccs3)s2)CCC(c2ccccc2)CC1` (stereo not drawn), the emission maximum was 464 nm.

In turn, `CC(C)[Si](C#Cc1c2cc3ccccc3cc2c(C#C[Si](C(C)C)(C(C)C)C(C)C)c2nc3cc4c(cc3nc12)C1c2ccccc2C4c2ccccc21)(C(C)C)C(C)C` displayed an emission maximum of 682 nm.

For `CN(C)CCNc1ccc([N+](=O)[O-])cc1[N+](=O)[O-]`, the emission maximum worked out at 363 nm.

With `CCN(CC)c1ccc(-c2nc3c(c4c2-c2ccc(C#N)cc2CC4)-c2ccc(C#N)cc2CC3)cc1`, the emission maximum is on record as 455 nm.

As for `COc1cc(OC)cc(C2=[O+][B-](F)(F)OC(c3cccs3)=C2)c1`, the emission maximum was 434.88 nm.

The data set is the same for the next values; noted with them: in CCCCCCC.
As to `COc1ccc(/C=C/c2nc(/C=C/c3ccc(N(c4ccccc4)c4ccccc4)cc3)cc(/C=C/c3ccc(N(c4ccccc4)c4ccccc4)cc3)n2)cc1`, the emission maximum is 461 nm.

Staying with this data set, now noted: in CCO.
On to `CCOC(=O)c1ccccc1-c1c2ccc(=[N+](CC)CC)cc-2oc2c1c(=O)oc1cc3c(cc12)CCCN3C`, for which the emission maximum turned out to be 658 nm.

Consider `OC1(c2ccc(-c3cccs3)s2)CCC(c2ccccc2)CC1` (stereo not drawn), for which the emission maximum was found to be 460 nm.

Regarding `CCOC(=O)c1ccccc1-c1c2ccc(=[N+](CC)CC)cc-2oc2c1oc1cc(N)ccc12`, the emission maximum was found to be 640 nm.

As for `CC(=O)c1nc(-c2ccc(N(C)C)cc2)oc1C`, the emission maximum is 377 nm.

In the case of `O=c1c2cc(F)c(N3CCCCC3)cc2sc2cc(N3CCCCC3)c(F)cc12`, the emission maximum is 487 nm.

As to `O=C([O-])c1ccccc1-c1c2cc(I)c(=O)c(I)c-2oc2c(I)c([O-])c(I)cc12`, the emission maximum is on record as 551 nm.

`CN(C)CCNc1ccc([N+](=O)[O-])cc1[N+](=O)[O-]` showed an emission maximum of 394 nm.

The compound `CCOC(=O)c1cc(C(=O)OCC)c2ccc(N(C)C)cc2n1` came in with an emission maximum of 541 nm.

The data set is the same for the next values; noted with them: in CCOC(C)=O.
The compound `COc1cc(N(c2ccccc2)c2ccccc2)ccc1C=C(C#N)C#N` registered an emission maximum of 573 nm.

As to `CC(=O)c1nc(-c2ccc(N(C)C)cc2)oc1C`, the emission maximum turned out to be 370 nm.

Compound `CCCCCCCCCCCCCCCCOC(=O)c1ccc(N(c2ccccc2)c2ccccc2)cc1` yielded an emission maximum of 428 nm.

Compound `CCCCN1c2ccccc2Sc2cc(/C=C/c3nc4nc5ccccc5nc4s3)ccc21` displayed an emission maximum of 670 nm.

`CN(C)CCNc1ccc([N+](=O)[O-])cc1[N+](=O)[O-]` showed an emission maximum of 384 nm.

`CCN(CC)c1ccc(-c2nc3c(c4c2-c2ccc(C#N)cc2CC4)-c2ccc(C#N)cc2CC3)cc1` displayed an emission maximum of 494 nm.

The same data set, now with this note: in CCOCC.
On to `CC(=O)c1nc(-c2ccc(N(C)C)cc2)oc1C`, for which the emission maximum amounted to 368 nm.

As for `CCCCN1c2ccccc2Sc2cc(/C=C/c3nc4nc5ccccc5nc4s3)ccc21`, the emission maximum is reported as 635 nm.

Staying with this data set, now noted: in CN(C)C=O.
Compound `COc1cc(N(c2ccccc2)c2ccccc2)ccc1C=C(C#N)C#N` had an emission maximum of 558 nm.

In turn, `CC1(C)Cc2c(c3ccccc3c3nc4ccccc4nc23)O1` yielded an emission maximum of 521.92 nm.
